Here are results for 7 compounds from ChEMBL document CHEMBL5260828, “Amphiphilic glycoconjugates as potential anti-cancer chemotherapeutics” (Eur J Med Chem, 2018).

Assay [1] can be described thus: Induction of apoptosis in rat Glial cell transformed with adenovirus 12 E1A incubated for 24 hrs by /Hoechst […] staining based flourescence microscopy. It counts as functional.
The test system of assay [2] is NCI-H292. The experiment in a line: Cytotoxicity against human NCI-H292 cells assessed as reduction in cell viability incubated for 4 days by WST-1 assay. The assay is classed as functional, cell-based. The settings on record: NCI-H292, 96 h. For orientation: Tetrazolium assays rely on reduction of a dye to a coloured formazan, in cell work by metabolically active cells.

A short description of assay [3]: Growth inhibition of human HBC4 cells by sulforhodamine B assay. It counts as functional.
A short description of assay [4]: Growth inhibition of human BSY1 cells by sulforhodamine B assay. The note with it: BSY-1. It counts as functional. For orientation: Sulforhodamine B stains cellular protein and so reports cell mass.
Assay [5] is described as follows: Growth inhibition of human HBC5 cells by sulforhodamine B assay. The assay is classed as functional.
Assay [6] deals with MCF7. The experiment in a line: Growth inhibition of human MCF7 cells by sulforhodamine B assay. The assay is classed as functional.
The nature of assay [7]: Growth inhibition of human […] cells by sulforhodamine B assay. It counts as functional.
For assay [8], the system named is U-251. The experiment in a line: Growth inhibition of human U-251 cells by sulforhodamine B assay. The assay is classed as functional.
For assay [9], the system named is SF-268. The experiment in a line: Growth inhibition of human SF-268 cells by sulforhodamine B assay. The assay is classed as functional.
The test system of assay [10] is SF-295. The experiment in a line: Growth inhibition of human SF-295 cells by sulforhodamine B assay. The assay is classed as functional.
For assay [11], the system named is SF-539. The experiment in a line: Growth inhibition of human SF-539 cells by sulforhodamine B assay. The assay is classed as functional.
Assay [12] concerns SNB-75. Nature of the assay: Growth inhibition of human SNB-75 cells by sulforhodamine B assay. It counts as functional.
Assay [13] relates to SNB-78. The experiment in a line: Growth inhibition of human SNB-78 cells by sulforhodamine B assay. The assay is classed as functional.
Assay [14] relates to HCC 2998. The experiment in a line: Growth inhibition of human HCC 2998 cells by sulforhodamine B assay. The assay is classed as functional.
The test system of assay [15] is KM12. Nature of the assay: Growth inhibition of human KM12 cells by sulforhodamine B assay. It counts as functional.
For assay [16], the system named is HT-29. The experiment in a line: Growth inhibition of human HT-29 cells by sulforhodamine B assay. It counts as functional.
The subject of assay [17] is HCT-15. The experiment in a line: Growth inhibition of human HCT-15 cells by sulforhodamine B assay. The assay is classed as functional.
The test system of assay [18] is HCT-116. The experiment in a line: Growth inhibition of human HCT-116 cells by sulforhodamine B assay. The assay is classed as functional.
Assay [19] has as its system NCI-H23. Nature of the assay: Growth inhibition of human NCI-H23 cells by sulforhodamine B assay. The assay is classed as functional.
Assay [20] has as its system NCI-H226. Nature of the assay: Growth inhibition of human NCI-H226 cells by sulforhodamine B assay. It counts as functional.
In assay [21] the test system is NCI-H522. Nature of the assay: Growth inhibition of human NCI-H522 cells by sulforhodamine B assay. It counts as functional.
Assay [22] deals with NCI-H460. Nature of the assay: Growth inhibition of human NCI-H460 cells by sulforhodamine B assay. It counts as functional.
In assay [23] the test system is A549. The experiment in a line: Growth inhibition of human A549 cells by sulforhodamine B assay. The assay is classed as functional.
The subject of assay [24] is DMS-273. The experiment in a line: Growth inhibition of human DMS-273 cells by sulforhodamine B assay. It counts as functional.
The test system of assay [25] is LOX IMVI. The experiment in a line: Growth inhibition of human LOX IMVI cells by sulforhodamine B assay. It counts as functional.
The test system of assay [26] is OVCAR-3. Nature of the assay: Growth inhibition of human OVCAR-3 cells by sulforhodamine B assay. It counts as functional.
For assay [27], the system named is OVCAR-4. Nature of the assay: Growth inhibition of human OVCAR-4 cells by sulforhodamine B assay. It counts as functional.
The test system of assay [28] is OVCAR-5. Nature of the assay: Growth inhibition of human OVCAR-5 cells by sulforhodamine B assay. The assay is classed as functional.
The test system of assay [29] is OVCAR-8. The experiment in a line: Growth inhibition of human OVCAR-8 cells by sulforhodamine B assay. The assay is classed as functional.
Assay [30] deals with SK-OV-3. Nature of the assay: Growth inhibition of human SK-OV-3 cells by sulforhodamine B assay. It counts as functional.
Assay [31] has as its system RXF 631. Nature of the assay: Growth inhibition of human RXF 631 cells by sulforhodamine B assay. The assay is classed as functional.
Assay [32] has as its system ACHN. Nature of the assay: Growth inhibition of human ACHN cells by sulforhodamine B assay. It counts as functional.
Assay [33] concerns St-4. Nature of the assay: Growth inhibition of human St-4 cells by sulforhodamine B assay. The assay is classed as functional.
In assay [34] the test system is MKN-1. The experiment in a line: Growth inhibition of human MKN-1 cells by sulforhodamine B assay. The assay is classed as functional.
Assay [35] concerns MKN-7. The experiment in a line: Growth inhibition of human MKN-7 cells by sulforhodamine B assay. The assay is classed as functional.
Assay [36] relates to MKN-28. The experiment in a line: Growth inhibition of human MKN-28 cells by sulforhodamine B assay. It counts as functional.
In assay [37] the test system is MKN-45. Nature of the assay: Growth inhibition of human MKN-45 cells by sulforhodamine B assay. It counts as functional.
Assay [38] deals with MKN-74. The experiment in a line: Growth inhibition of human MKN-74 cells by sulforhodamine B assay. It counts as functional.
Assay [39] relates to DU-145. Nature of the assay: Growth inhibition of human DU-145 cells by sulforhodamine B assay. It counts as functional.
The test system of assay [40] is PC-3. The experiment in a line: Growth inhibition of human PC-3 cells by sulforhodamine B assay. It counts as functional.
The test system of assay [41] is HeLa S3. Nature of the assay: Cytotoxicity against human HeLa S3 cells assessed as cell growth inhibition. The assay is classed as functional, cell-based.
For assay [42], the target named is Sarcoplasmic/endoplasmic reticulum calcium ATPase 1 (Oryctolagus cuniculus, UniProt P04191). Nature of the assay: Inhibition of SERCA1a in rabbit Sarcoplasmic reticulum assessed as inhibition constant in presence of [gamma-32P]ATP and calcium ionophore A23187 by coupled enzyme assay. The assay is classed as subcellular.
Assay [43] can be described thus: Cytotoxicity against mouse WEHI-231 cells assessed as cell growth inhibition incubated for 144 hrs by MTT assay. It counts as functional, cell-based. The settings on record: WEHI231, 144 h.
Assay [44] has as its system MCF7. Nature of the assay: Cytotoxicity against human MCF7 cells assessed as cell growth inhibition incubated for 144 hrs by MTT assay. It counts as functional, cell-based. The note with it: MCF7, 144 h.
In assay [45] the test system is Colon 26. The experiment in a line: Cytotoxicity against mouse Colon 26 cells incubated for 3 days by MTT assay. It counts as functional, cell-based. The settings on record: Colon 26, 72 h.
Assay [46] concerns L1210. Nature of the assay: Cytotoxicity against mouse L1210 cells incubated for 3 days by MTT assay. The assay is classed as functional, cell-based. The settings on record: L1210, 72 h.
Assay [47] concerns NCI-H292. The experiment in a line: Growth inhibition in human NCI-H292 cells incubated for 2 days by calcein-AM/pluronic F127 based fluorescence plate reader. It counts as functional. The settings on record: NCI-H292, 48 h, time 2 day.
Assay [48] relates to HeLa. The experiment in a line: Cytotoxicity against human HeLa cells by MTT assay. The assay is classed as functional, cell-based.
Assay [49] has as its system KB. Nature of the assay: Cytotoxicity against human KB cells by MTT assay. The assay is classed as functional, cell-based.
Assay [50] deals with K562. The experiment in a line: Cytotoxicity against human K562 cells by MTT assay. The assay is classed as functional, cell-based.
Assay [51] deals with Jurkat. Nature of the assay: Cytotoxicity against human Jurkat cells incubated for 18 hrs by MTS assay. The assay is classed as functional.

In brackets after ≈: the same amount, converted by molar mass.

Chain of Sarcoplasmic/endoplasmic reticulum calcium ATPase 1 (P04191 whole entry): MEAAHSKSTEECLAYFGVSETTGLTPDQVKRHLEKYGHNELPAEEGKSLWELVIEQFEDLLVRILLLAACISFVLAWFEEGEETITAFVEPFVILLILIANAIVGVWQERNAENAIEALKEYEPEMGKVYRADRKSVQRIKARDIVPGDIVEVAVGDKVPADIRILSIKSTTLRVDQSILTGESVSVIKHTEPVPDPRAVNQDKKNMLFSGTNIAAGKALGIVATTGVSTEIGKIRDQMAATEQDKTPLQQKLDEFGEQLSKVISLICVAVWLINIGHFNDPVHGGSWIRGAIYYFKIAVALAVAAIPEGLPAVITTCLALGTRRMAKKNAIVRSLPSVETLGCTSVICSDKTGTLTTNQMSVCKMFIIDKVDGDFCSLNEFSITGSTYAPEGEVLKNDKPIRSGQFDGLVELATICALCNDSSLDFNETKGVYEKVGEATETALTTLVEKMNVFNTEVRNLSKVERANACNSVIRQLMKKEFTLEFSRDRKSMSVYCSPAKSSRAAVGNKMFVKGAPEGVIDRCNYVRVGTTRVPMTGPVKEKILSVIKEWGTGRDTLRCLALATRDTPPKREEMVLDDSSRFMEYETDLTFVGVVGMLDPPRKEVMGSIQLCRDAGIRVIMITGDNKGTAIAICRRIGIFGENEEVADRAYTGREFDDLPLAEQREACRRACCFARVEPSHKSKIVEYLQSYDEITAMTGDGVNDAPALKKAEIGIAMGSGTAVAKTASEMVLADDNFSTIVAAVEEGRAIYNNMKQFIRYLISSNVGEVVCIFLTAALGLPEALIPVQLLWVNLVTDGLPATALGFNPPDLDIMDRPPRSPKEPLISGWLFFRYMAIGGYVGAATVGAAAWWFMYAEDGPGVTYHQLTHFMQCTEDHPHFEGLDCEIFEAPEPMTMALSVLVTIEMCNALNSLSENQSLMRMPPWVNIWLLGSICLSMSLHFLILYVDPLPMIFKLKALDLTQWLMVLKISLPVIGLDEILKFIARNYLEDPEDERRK

For orientation: IC50 means the concentration needed to halve the response being measured. One may read the EC50 as the concentration at which the effect is half-maximal. For the compound `COC[C@@H](C[C@H]1O[C@@](O)([C@H](O)[C@@H]2C[C@H](OC)[C@@H](O)CC/C=C(C)/C=C/[C@@H](O[C@@H]3O[C@@H](C)[C@H](OC)[C@@H](O)[C@@H]3O)[C@H](C)/C=C(C)/C=C(C)/C=C(\C)C(=O)O2)[C@H](C)[C@@H](O)[C@H]1C)O[C@H]1C[C@](C)(O)[C@@H](O[C@H]2C[C@@H](OC)[C@H](O)[C@@H](C)O2)[C@H](C)O1`, in [1], 0.011 mg/L (≈ 0.00974 µM) corresponded to half-maximal inhibition (IC50). Besides, the EC50 in assay [2] was < 0.05 µM.

Broadly, the GI50 is the concentration that inhibits growth by half. What is called Ki is a dissociation constant, usually derived from enzyme kinetics or from competition with a known ligand. Take `C/C=C/C/C(C)=C\[C@H]1C/C=C/C=C/C[C@H](C)/C=C(\C)[C@@H](OC)C/C=C/[C@@H](O[C@@H]2O[C@H](CO)[C@@H](O)[C@H](OC)[C@H]2O)CC(=O)O1`: the GI50 in [3], in assay [4], in assay [5], in assay [6], in assay [7] and in assay [8] was 0.6 µM throughout. Moreover, the GI50 in [9], in assay [10], in assay [11], in assay [12], in [13] and in assay [14] was 0.6 µM each time. The GI50 in [15], in assay [16], in assay [17], in assay [18], in assay [19] and in assay [20] was 0.6 µM in each case. For the same compound, the GI50 in assay [21], in assay [22], in assay [23], in assay [24], in [25] and in assay [26] was 0.6 µM in each case. Moreover, the 50% growth inhibitory concentration (GI50) in assay [27], in [28], in [29], in [30], in assay [31] and in [32] was 0.6 µM each time. Moreover, the 50% growth inhibitory concentration (GI50) in assay [33], in assay [34], in assay [35], in assay [36], in assay [37] and in assay [38] was 0.6 µM throughout. The GI50 in [39] and in assay [40] was 0.6 µM each time. The half-inhibitory concentration (IC50) in [41] is 0.1 mg/L (≈ 0.165 µM). Further, in [42], the inhibition constant Ki was determined as 0.019 µM.

Regarding `COC[C@@H](C[C@H]1O[C@@](O)([C@H](O)[C@@H]2C[C@H](OC)[C@@H](O)CCC/C=C(C)\C=C\C[C@@H](O[C@H]3O[C@@H](C)[C@H](OC)[C@@H](O)[C@@H]3O)[C@H](C)/C=C(C)/C=C(C)/C=C(\C)C(=O)O2)[C@H](C)[C@@H](O)[C@H]1C)O[C@H]1C[C@](C)(O)[C@@H](O[C@H]2C[C@@H](OC)[C@H](O)[C@@H](C)O2)[C@H](C)O1`, the figures for the IC50 in assay [43] and in [44] were 0.02 µM and 0.03 µM, respectively.

Turning to `C/C=C(\C)[C@H](O)[C@H](C)/C=C(C)/C=C/C/C(C)=C/Cc1nc(OC)c(OC)c(OC2O[C@H](C)[C@H](O)[C@H](O)[C@@H]2O)c1C` (stereo partly specified), the values for the IC50 in assay [45] and in assay [46] were 0.81 mg/L (≈ 1.44 µM) and 7.91 mg/L (≈ 14.1 µM), respectively.

In the case of `COC[C@@H](C[C@H]1O[C@@](O)([C@H](O)[C@@H]2C[C@H](OC)CCC/C=C(C)/C=C/[C@@H](O[C@@H]3O[C@@H](C)[C@H](OC)[C@@H](O)[C@@H]3O)[C@H](C)/C=C(C)/C=C(C)/C=C(\C)C(=O)O2)[C@H](C)[C@@H](O)[C@H]1C)O[C@H]1C[C@](C)(O)[C@@H](O[C@H]2C[C@@H](OC)[C@H](O)[C@@H](C)O2)[C@H](C)O1`, the GI50 in assay [47] was 0.007 µM.

On to `C/C=C(\C)[C@H](O)[C@H](C)/C=C(C)/C=C/C/C(C)=C/Cc1nc(OC)c(OC)c(OC2O[C@@H](C)[C@H](O)[C@@H](O)[C@H]2O)c1C` (stereo partly specified), for which the values for the IC50 in assay [48], in assay [49] and in assay [50] were 2.8 mg/L (≈ 4.98 µM), 3.8 mg/L (≈ 6.76 µM) and 4.6 mg/L (≈ 8.19 µM), respectively.

A word on the CC50: it is the concentration at which the toxic effect on the cells reaches its halfway point. A lower CC50 goes with harm at low concentration. Consider `CCCCCCCCCCCCn1cc(CO[C@@H]2OC[C@@H](O)[C@H](O)[C@H]2O)nn1`, for which the CC50 in [51] turned out to be 26 µM.
